What was measured:
[1] = target: Epidermal growth factor receptor (Homo sapiens, UniProt P00533); assay: Residual activity of wild type EGF-R at 1 uM by microplate scintillation counting
[2] = target: T1, Ephrin type-A receptor 1 (Homo sapiens) (UniProt P21709); assay: Residual activity of EPHA1 at 1 uM by microplate scintillation counting
T1 sequence (whole entry): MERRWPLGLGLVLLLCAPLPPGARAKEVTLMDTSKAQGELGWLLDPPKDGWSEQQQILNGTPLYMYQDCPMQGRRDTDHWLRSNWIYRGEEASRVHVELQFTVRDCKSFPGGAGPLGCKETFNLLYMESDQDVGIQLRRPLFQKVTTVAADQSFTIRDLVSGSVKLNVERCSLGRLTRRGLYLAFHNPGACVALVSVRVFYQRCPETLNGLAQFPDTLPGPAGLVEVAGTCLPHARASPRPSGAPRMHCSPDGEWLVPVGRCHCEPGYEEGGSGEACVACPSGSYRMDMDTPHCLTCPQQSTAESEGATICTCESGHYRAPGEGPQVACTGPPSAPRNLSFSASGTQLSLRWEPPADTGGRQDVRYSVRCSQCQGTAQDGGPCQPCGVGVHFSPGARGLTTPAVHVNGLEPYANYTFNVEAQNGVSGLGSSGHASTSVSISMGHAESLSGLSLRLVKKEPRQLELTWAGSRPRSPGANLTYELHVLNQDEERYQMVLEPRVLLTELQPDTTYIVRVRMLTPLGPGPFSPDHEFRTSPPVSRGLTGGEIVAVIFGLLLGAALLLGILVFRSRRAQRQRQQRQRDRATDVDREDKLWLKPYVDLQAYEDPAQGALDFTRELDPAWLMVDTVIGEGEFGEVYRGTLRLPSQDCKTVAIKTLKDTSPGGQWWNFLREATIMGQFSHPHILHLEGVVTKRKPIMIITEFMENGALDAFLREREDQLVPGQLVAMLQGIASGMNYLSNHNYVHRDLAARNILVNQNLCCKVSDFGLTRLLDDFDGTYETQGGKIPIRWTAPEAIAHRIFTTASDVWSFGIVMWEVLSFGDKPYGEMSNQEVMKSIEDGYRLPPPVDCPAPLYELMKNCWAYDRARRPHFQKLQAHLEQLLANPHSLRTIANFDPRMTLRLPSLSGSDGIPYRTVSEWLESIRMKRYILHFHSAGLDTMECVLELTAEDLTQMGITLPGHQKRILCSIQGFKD

[3] = target: Insulin-like growth factor 1 receptor (Homo sapiens) (UniProt P08069); assay: Residual activity of IGF1R at 1 uM by microplate scintillation counting
[4] = target: Death-associated protein kinase 3 (Homo sapiens) (UniProt O43293); assay: Residual activity of DAPK3 at 0.1 uM by microplate scintillation counting
[5] = target: Insulin receptor-related protein (Homo sapiens) (UniProt P14616); assay: Residual activity of INSRR at 0.1 uM by microplate scintillation counting
[6] = target: Tyrosine-protein kinase Lyn (Homo sapiens) (UniProt P07948); assay: Residual activity of LYN at 0.1 uM by microplate scintillation counting
[7] = target: Insulin receptor-related protein (Homo sapiens) (UniProt P14616); assay: Residual activity of INSRR at 1 uM by microplate scintillation counting
[8] = target: Mitogen-activated protein kinase 10 (Homo sapiens) (UniProt P53779); assay: Residual activity of JNK3 at 1 uM by microplate scintillation counting
[9] = target: T2, Mitogen-activated protein kinase 12 (Homo sapiens) (UniProt P53778); assay: Residual activity of p38-gamma at 1 uM by microplate scintillation counting
T2 sequence (whole entry): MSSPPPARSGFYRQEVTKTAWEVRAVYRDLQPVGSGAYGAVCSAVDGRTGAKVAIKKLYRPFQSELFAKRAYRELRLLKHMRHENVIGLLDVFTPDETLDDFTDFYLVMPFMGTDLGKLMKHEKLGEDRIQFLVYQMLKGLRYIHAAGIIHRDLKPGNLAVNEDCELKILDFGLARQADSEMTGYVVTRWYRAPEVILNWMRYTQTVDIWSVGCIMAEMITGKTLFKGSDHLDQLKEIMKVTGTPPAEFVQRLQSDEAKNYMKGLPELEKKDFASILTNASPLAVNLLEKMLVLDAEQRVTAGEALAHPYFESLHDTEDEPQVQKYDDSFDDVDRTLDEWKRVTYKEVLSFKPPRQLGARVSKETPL

[10] = target: Vascular endothelial growth factor receptor 1 (Homo sapiens) (UniProt P17948); assay: Residual activity of VEGFR1 at 1 uM by microplate scintillation counting
[11] = target: Protein kinase C eta type (Homo sapiens) (UniProt P24723); assay: Residual activity of PKCeta at 10 uM by microplate scintillation counting
[12] = target: Serine/threonine-protein kinase SIK2 (Homo sapiens) (UniProt Q9H0K1); assay: Residual activity of SNF1LK2 at 0.1 uM by microplate scintillation counting
[13] = target: Vascular endothelial growth factor receptor 2 (Homo sapiens, UniProt P35968); assay: Residual activity of VEGFR2 at 0.1 uM by microplate scintillation counting
[14] = target: T3, Dual specificity protein kinase TTK (Homo sapiens) (UniProt P33981); assay: Residual activity of TTK at 10 uM by microplate scintillation counting
T3 sequence (whole entry): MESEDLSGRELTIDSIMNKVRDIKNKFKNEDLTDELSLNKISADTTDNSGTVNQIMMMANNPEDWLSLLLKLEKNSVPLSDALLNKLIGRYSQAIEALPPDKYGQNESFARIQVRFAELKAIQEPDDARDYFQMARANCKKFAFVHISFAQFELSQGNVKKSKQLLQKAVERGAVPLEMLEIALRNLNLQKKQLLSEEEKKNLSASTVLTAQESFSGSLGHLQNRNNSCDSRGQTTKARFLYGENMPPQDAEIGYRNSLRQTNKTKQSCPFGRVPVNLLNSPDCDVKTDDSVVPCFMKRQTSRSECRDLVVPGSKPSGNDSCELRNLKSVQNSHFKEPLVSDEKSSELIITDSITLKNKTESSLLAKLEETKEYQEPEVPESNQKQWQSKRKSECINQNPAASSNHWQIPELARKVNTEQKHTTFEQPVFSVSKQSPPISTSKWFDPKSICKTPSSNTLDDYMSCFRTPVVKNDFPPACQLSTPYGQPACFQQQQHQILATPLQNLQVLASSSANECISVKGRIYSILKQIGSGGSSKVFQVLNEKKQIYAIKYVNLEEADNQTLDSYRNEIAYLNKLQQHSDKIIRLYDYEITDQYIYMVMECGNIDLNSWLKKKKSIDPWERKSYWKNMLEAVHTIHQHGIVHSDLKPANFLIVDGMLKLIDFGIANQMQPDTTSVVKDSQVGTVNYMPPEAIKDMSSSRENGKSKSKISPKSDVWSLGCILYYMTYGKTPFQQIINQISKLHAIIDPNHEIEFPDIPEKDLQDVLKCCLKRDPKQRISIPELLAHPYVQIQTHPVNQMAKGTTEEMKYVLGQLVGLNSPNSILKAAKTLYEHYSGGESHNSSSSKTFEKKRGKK

Chain of Insulin receptor-related protein (Homo sapiens) (P14616 27-742 limits assumed): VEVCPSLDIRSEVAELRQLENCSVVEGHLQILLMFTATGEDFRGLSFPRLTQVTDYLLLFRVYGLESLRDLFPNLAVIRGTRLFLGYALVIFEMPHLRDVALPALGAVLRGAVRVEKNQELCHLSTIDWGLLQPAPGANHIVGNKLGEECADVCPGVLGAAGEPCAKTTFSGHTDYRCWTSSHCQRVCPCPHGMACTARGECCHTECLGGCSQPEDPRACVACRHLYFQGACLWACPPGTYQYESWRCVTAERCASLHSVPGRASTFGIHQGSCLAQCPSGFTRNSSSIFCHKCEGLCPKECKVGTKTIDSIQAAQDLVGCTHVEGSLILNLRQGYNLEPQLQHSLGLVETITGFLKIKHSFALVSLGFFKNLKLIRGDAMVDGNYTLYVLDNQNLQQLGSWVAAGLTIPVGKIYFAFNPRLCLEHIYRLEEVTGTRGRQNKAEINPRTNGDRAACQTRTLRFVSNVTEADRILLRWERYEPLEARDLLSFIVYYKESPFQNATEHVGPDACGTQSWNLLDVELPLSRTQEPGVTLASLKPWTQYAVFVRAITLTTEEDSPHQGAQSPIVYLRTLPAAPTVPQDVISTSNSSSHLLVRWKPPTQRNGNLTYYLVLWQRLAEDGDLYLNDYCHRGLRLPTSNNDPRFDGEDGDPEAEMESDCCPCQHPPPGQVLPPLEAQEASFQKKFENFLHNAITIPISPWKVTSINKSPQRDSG
Chain of Insulin receptor-related protein (Homo sapiens) (P14616 747-1297 limits assumed): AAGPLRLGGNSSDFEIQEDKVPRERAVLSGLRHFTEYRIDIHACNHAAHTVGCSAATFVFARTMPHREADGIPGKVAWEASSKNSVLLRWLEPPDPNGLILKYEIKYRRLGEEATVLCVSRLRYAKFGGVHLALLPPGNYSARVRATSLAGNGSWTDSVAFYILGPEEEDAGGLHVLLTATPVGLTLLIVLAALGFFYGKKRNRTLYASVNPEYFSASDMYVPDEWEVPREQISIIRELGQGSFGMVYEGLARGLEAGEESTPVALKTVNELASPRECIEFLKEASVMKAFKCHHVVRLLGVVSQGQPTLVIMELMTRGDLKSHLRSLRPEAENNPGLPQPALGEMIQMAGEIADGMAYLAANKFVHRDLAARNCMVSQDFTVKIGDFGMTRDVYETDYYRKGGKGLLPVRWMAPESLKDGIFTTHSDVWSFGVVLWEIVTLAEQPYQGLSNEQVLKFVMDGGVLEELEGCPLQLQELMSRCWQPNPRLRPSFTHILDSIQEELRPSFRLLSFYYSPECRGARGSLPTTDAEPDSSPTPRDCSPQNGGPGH
Chain of Death-associated protein kinase 3 (Homo sapiens) (O43293 whole entry, looked up): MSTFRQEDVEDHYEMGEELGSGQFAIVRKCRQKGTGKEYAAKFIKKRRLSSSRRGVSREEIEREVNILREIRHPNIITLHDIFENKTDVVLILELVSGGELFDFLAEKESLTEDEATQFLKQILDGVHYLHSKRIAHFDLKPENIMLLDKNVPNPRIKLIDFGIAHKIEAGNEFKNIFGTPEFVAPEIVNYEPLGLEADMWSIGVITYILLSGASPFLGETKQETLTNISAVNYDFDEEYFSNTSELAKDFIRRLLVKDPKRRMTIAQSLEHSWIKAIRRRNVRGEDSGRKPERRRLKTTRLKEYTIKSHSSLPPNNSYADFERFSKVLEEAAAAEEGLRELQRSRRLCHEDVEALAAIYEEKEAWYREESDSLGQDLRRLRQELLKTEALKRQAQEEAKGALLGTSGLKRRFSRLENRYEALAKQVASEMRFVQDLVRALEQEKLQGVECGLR
Chain of Tyrosine-protein kinase Lyn (Homo sapiens) (P07948 2-512 limits assumed): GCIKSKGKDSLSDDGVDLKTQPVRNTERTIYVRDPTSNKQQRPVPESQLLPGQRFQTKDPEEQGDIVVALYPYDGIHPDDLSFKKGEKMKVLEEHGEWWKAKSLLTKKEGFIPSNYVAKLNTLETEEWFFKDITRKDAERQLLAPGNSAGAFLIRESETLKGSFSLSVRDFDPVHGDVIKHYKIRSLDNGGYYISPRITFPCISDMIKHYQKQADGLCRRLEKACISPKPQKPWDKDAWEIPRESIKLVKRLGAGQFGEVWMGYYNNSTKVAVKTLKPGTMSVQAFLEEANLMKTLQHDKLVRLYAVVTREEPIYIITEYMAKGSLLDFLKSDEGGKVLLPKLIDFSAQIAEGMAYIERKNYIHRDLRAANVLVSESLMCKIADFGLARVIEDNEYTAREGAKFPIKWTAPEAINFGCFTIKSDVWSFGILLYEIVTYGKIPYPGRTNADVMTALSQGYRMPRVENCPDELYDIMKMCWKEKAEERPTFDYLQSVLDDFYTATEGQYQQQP
Chain of Epidermal growth factor receptor (P00533 whole entry): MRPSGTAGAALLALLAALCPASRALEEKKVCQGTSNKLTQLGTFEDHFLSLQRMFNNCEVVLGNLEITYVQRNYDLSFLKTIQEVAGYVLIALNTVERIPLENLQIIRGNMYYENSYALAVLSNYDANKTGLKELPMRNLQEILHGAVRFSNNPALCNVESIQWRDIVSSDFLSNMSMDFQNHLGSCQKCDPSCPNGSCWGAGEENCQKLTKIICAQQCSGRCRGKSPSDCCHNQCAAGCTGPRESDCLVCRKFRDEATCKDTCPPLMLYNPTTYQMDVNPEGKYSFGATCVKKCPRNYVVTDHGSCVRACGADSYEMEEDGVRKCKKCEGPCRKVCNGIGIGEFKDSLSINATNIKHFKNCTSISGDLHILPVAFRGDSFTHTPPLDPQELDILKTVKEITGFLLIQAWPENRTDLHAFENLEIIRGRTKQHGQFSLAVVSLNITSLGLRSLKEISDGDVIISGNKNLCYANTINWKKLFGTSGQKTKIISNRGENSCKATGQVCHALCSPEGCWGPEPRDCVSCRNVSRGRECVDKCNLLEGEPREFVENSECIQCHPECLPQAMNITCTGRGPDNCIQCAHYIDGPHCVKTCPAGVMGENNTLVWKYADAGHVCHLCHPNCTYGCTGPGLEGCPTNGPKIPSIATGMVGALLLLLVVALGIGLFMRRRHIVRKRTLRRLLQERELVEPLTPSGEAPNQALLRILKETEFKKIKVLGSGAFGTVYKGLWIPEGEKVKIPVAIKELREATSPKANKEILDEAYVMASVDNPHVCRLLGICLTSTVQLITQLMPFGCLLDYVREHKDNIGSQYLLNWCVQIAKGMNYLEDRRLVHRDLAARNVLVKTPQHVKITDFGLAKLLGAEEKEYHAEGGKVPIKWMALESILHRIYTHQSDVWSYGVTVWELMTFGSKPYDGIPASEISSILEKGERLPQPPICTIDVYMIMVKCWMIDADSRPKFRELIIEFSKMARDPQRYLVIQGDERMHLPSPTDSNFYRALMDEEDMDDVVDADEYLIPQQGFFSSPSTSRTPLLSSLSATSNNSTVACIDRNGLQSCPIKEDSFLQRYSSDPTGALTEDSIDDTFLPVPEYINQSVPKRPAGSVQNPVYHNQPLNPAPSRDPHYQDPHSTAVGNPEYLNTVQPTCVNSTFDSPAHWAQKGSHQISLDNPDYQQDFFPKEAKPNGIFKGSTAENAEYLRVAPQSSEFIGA
Chain of Vascular endothelial growth factor receptor 2 (P35968 whole entry): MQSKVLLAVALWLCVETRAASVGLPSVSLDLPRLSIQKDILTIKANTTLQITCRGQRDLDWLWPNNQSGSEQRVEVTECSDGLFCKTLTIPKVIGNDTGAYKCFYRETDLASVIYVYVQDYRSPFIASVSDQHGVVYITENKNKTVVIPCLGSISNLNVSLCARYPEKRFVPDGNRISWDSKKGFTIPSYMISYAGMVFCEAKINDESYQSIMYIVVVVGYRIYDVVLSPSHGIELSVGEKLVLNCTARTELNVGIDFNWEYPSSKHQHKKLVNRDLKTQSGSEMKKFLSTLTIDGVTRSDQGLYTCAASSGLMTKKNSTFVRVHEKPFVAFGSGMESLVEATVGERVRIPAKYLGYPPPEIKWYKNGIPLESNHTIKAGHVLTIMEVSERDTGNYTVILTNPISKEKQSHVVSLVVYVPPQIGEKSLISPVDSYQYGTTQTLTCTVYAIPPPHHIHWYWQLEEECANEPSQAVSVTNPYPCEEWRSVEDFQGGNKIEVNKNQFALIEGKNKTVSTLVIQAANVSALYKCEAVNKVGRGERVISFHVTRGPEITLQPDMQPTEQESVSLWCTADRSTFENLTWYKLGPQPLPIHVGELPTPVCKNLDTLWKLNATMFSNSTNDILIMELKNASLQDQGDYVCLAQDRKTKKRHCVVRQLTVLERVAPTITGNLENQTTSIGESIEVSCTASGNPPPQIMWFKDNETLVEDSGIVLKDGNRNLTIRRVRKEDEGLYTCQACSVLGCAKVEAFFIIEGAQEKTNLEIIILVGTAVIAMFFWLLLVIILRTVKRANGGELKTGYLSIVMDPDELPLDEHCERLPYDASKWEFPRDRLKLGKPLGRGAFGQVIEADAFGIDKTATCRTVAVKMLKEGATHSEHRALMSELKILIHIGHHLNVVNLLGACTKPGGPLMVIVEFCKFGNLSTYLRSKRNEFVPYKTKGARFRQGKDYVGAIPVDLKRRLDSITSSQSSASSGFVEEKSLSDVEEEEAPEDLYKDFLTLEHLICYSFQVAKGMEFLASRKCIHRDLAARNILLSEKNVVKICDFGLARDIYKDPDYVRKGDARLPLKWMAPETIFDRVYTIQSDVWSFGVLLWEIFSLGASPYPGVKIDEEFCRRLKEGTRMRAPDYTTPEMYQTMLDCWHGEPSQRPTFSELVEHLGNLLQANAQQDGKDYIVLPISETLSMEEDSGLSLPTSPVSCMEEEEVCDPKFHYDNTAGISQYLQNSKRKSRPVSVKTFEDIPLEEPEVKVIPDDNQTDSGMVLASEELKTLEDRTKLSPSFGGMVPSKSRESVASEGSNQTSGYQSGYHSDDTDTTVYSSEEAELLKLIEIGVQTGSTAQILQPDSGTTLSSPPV

residual activity [1] [%] | residual activity [2] [%] | residual activity [3] [%] | residual activity [5] [%] | residual activity [6] [%] | residual activity [7] [%] | residual activity [8] [%] | residual activity [9] [%] | residual activity [10] [%] | residual activity [11] [%] | residual activity [12] [%] | residual activity [13] [%] | residual activity [14] [%] | Compound | residual activity [4] [%]
91 | 147 | 100 | 97 | 108 | 96 | 97 | 112 | 74 | 81 | 80 | 73 | 84 | COc1cc2c(Oc3ccc(-c4nc5ccccc5s4)cc3)ncnc2cc1OCCCN1CCCC1 | 89
96 | 145 | 115 | 116 | 102 | 73 | 101 | 125 | 74 | 55 | 88 | 73 | 70 | COc1cc2c(Oc3ccc(-c4nc5ccccc5s4)cc3F)ncnc2cc1OCCCN1CCN(C)CC1 | 74
77 | 140 | 100 | 96 | 112 | 105 | 106 | 105 | 75 | 71 | 93 | 65 | 69 | COc1cc2c(Oc3ccc(-c4nc5ccccc5s4)cc3)ncnc2cc1OCCCN1CCN(C)CC1 | 75

— ChEMBL document CHEMBL1152560, “Substituted 2-arylbenzothiazoles as kinase inhibitors: hit-to-lead optimization” (Bioorg Med Chem, 2009)
